Test in all cases: Antibacterial test, agar plate dilution method (MIC)
What all share (type): cell-based

The test system of one assay is P. aeruginosa PAO 1. The settings on record: Pseudomonas aeruginosa, PAO1, MH agar, 37° C., 18 hours. Here is the method: (§1) The antibacterial activities were tested by an agar plate dilution method in accordance with the standard method of The Japanese Chemotherapy Society [Chemotherapy, Vol.29, 76-79(1981)]. A Mulluer-Hinton (MH) agar liquid medium of a test microorganism was cultured overnight at 37° C. and the resultant culture medium was diluted with a buffered saline gelatin (BSG) solution to contain approximately 10^6 cells of the test microorganisms per milliliter, and then the diluted solution was inoculated with a micro-planter at the rate of approximately 5 μl on a MH agar medium containing a test compound. This medium was then incubated at 37° C. for 18 hours. The minimum inhibitory concentration (MIC) is determined as a minimum concentration in which no test microorganism could grow.
(§2) It is noted here that the test organisms used were all standard strains, and test compounds were Compound (8) and (15) obtained in Examples mentioned later.

For another assay, the system named is E. coli NIHJ JC-2. The settings on record: Escherichia coli, NIHJJC2, MH agar, 37° C., 18 hours. The method, then:
as §1, §2

A further assay deals with M. luteus ATCC 9341. The settings on record: Micrococcus luteus, ATCC9341, MH agar, 37° C., 18 hours. Here is the method:
as §1, §2

Another assay has as its system S. typhimurium 11D971. The settings on record: Salmonella enterica, MH agar, 37° C., 18 hours. The method, then: as §1, §2
In a further assay the test system is S. aureus MS 353. The settings on record: Staphylococcus aureus, MS353, MH agar, 37° C., 18 hours. Here is the method: as §1, §2
A further assay has as its system S. typhi 901. The settings on record: Salmonella enterica, 18 h. Here is the method: as §1, §2
In another assay the test system is S. paratyphi 1015. The settings on record: Salmonella enterica, MH agar, 37° C., 18 hours. Here is the method:
as §1, §2

For another assay, the system named is S. schottmuelleri 8006. The settings on record: MH agar, 37° C., 18 hours. Here is the method: as §1, §2
Another assay relates to E. coli K-12 C600. The settings on record: Escherichia coli, K12C600, MH agar, 37° C., 18 hours. The method, then:
as §1, §2

Another assay has as its system B. subtilis ATCC 6633. The settings on record: Bacillus subtilis, ATCC6633, MH agar, 37° C., 18 hours. Here is the method:
as §1, §2

The subject of the next assay is P. rettgeri IFO 3850. The settings on record: Providencia rettgeri, IFO3850, MH agar, 37° C., 18 hours. Here is the method: as §1, §2
A further assay deals with P. vulgalis HX-19. The settings on record: MH agar, 37° C., 18 hours. Here is the method:
as §1, §2

Another assay has as its system P. aeruginosa NCTC 10490. The settings on record: Pseudomonas aeruginosa, NCTC10490, MH agar, 37° C., 18 hours. Here is the method: as §1, §2
The subject of another assay is S. pyogenes Cook. The settings on record: Streptococcus pyogenes, MH agar, 37° C., 18 hours. Here is the method:
as §1, §2

For a further assay, the system named is P. aeruginosa IFO 3445. The settings on record: Pseudomonas aeruginosa, IFO3445, MH agar, 37° C., 18 hours. Here is the method: as §1, §2
The next assay has as its system S. aureus FDA 209 JC-1. The settings on record: Staphylococcus aureus, FDA209, MH agar, 37° C., 18 hours. Here is the method:
as §1, §2

The next assay relates to E. cloacae 963. The settings on record: Enterobacter cloacae, MH agar, 37° C., 18 hours. The method, then:
as §1, §2

The subject of another assay is P. vulgaris OX-19. The settings on record: Proteus vulgaris, OX19, MH agar, 37° C., 18 hours. Here is the method:
as §1, §2

A further assay has as its system S. enteritridis G14. The settings on record: MH agar, 37° C., 18 hours. The method, then:
as §1, §2

The next assay has as its system S. aureus Terajima. The settings on record: Staphylococcus aureus, MH agar, 37° C., 18 hours. Here is the method:
as §1, §2

A further assay has as its system E. aerogenes ATCC 13048. The settings on record: Klebsiella aerogenes, ATCC13048, MH agar, 37° C., 18 hours. The method, then: as §1, §2
Another assay has as its system M. morganii IFO 3848. The settings on record: Morganella morganii, IFO3848, MH agar, 37° C., 18 hours. The method, then: as §1, §2
The next assay relates to P. mirabilis IFO 3849. The settings on record: Proteus mirabilis, IFO3849, MH agar, 37° C., 18 hours. Here is the method:
as §1, §2

The subject of another assay is K. pneumoniae PCI-602. The settings on record: Klebsiella pneumoniae, PCI602, MH agar, 37° C., 18 hours. The method, then: as §1, §2

Here are results for two molecules from US6479478B1, “Carbapenem compounds” (Wyeth Lederle Japan, Ltd., priority 1998, dated 2002).

Molecules are shown by their SMILES. Converted amounts (≈) assume the structure as drawn. Some results are limits rather than exact numbers.

One may read the MIC as the smallest concentration in the dilution series that meets the test's criterion for growth inhibition. A lower MIC goes with inhibition by little substance.

As to `C[C@@H](O)[C@H]1C(=O)N2C(C(=O)O)=C(SC3CN(C4=NCCN4C)C3)[C@H](C)[C@H]12` [Compound (8), (1R,5S,6S)-2-[1-(1-methy-2-imidazolin-2-yl)azetidin-3-yl]-thio-6-[(R)-1-hydroxyethyl]-1-methylcarbapen-2-em-3-carbolic acid], the MIC against P. aeruginosa PAO 1 was determined as 12.5 µg/mL (≈ 32.9 µM); with E. coli NIHJ JC-2, 0.025 µg/mL (≈ 0.0657 µM); in the assay on M. luteus ATCC 9341 it was 0.025 µg/mL (≈ 0.0657 µM); in the assay with S. typhimurium 11D971, 0.05 µg/mL (≈ 0.131 µM); in the assay on S. aureus MS 353, 0.013 µg/mL (≈ 0.0342 µM); against S. typhi 901 it was 0.025 µg/mL (≈ 0.0657 µM). Also, the minimum inhibitory concentration (MIC) with S. paratyphi 1015 was 0.1 µg/mL (≈ 0.263 µM); in the assay on S. schottmuelleri 8006, 0.1 µg/mL (≈ 0.263 µM); in the assay with E. coli K-12 C600, 0.1 µg/mL (≈ 0.263 µM); against B. subtilis ATCC 6633, 0.025 µg/mL (≈ 0.0657 µM); in the assay on P. rettgeri IFO 3850, 0.05 µg/mL (≈ 0.131 µM); in the assay with P. vulgalis HX-19 it was 0.39 µg/mL (≈ 1.03 µM). Further, the MIC is 12.5 µg/mL (≈ 32.9 µM) in the assay on P. aeruginosa NCTC 10490; at most 0.006 µg/mL against S. pyogenes Cook; 3.13 µg/mL (≈ 8.23 µM) with P. aeruginosa IFO 3445; 0.025 µg/mL (≈ 0.0657 µM) against S. aureus FDA 209 JC-1; 0.1 µg/mL (≈ 0.263 µM) against E. cloacae 963; 0.2 µg/mL (≈ 0.526 µM) in the assay with P. vulgaris OX-19. Further, the minimum inhibitory concentration (MIC) is 0.2 µg/mL (≈ 0.526 µM) with S. enteritridis G14; 0.013 µg/mL (≈ 0.0342 µM) against S. aureus Terajima; 0.1 µg/mL (≈ 0.263 µM) in the assay with E. aerogenes ATCC 13048; 0.2 µg/mL (≈ 0.526 µM) against M. morganii IFO 3848; 0.78 µg/mL (≈ 2.05 µM) in the assay with P. mirabilis IFO 3849; 0.1 µg/mL (≈ 0.263 µM) in the assay with K. pneumoniae PCI-602.
`C[C@@H](O)[C@H]1C(=O)N2C(C(=O)O)=C(SC3CN(C4=NCCN4)C3)[C@H](C)[C@H]12` [Compound (15), (1R,5S,6S)-2-[1-(1,3-imidazolin-2-yl)azetidin-3-yl]thio-6-[(R)-1-hydroxyethyl]-1-methylcarbapen-2-em-3-carbolic acid]: the minimal inhibitory concentration (MIC) came to 3.13 µg/mL (≈ 8.54 µM) in the assay on P. aeruginosa PAO 1; 0.025 µg/mL (≈ 0.0682 µM) against E. coli NIHJ JC-2; 0.05 µg/mL (≈ 0.136 µM) against M. luteus ATCC 9341; 0.05 µg/mL (≈ 0.136 µM) in the assay with S. typhimurium 11D971; 0.013 µg/mL (≈ 0.0355 µM) with S. aureus MS 353; 0.025 µg/mL (≈ 0.0682 µM) in the assay with S. typhi 901. Also, the minimum inhibitory concentration (MIC) against S. paratyphi 1015 was 0.1 µg/mL (≈ 0.273 µM); with S. schottmuelleri 8006, 0.1 µg/mL (≈ 0.273 µM); against E. coli K-12 C600, 0.2 µg/mL (≈ 0.546 µM); in the assay on B. subtilis ATCC 6633, 0.025 µg/mL (≈ 0.0682 µM); in the assay with P. rettgeri IFO 3850, 0.025 µg/mL (≈ 0.0682 µM); in the assay on P. vulgalis HX-19, 0.78 µg/mL (≈ 2.13 µM). Further, the minimal inhibitory concentration (MIC) against P. aeruginosa NCTC 10490 is 1.56 µg/mL (≈ 4.26 µM); in the assay with S. pyogenes Cook it was at most 0.006 µg/mL; against P. aeruginosa IFO 3445 it was 1.56 µg/mL (≈ 4.26 µM); in the assay with S. aureus FDA 209 JC-1, 0.025 µg/mL (≈ 0.0682 µM); in the assay with E. cloacae 963, 0.05 µg/mL (≈ 0.136 µM); against P. vulgaris OX-19 it was 0.78 µg/mL (≈ 2.13 µM). Moreover, the minimum inhibitory concentration (MIC) was 1.56 µg/mL (≈ 4.26 µM) against S. enteritridis G14; at most 0.006 µg/mL with S. aureus Terajima; 0.1 µg/mL (≈ 0.273 µM) in the assay on E. aerogenes ATCC 13048; 1.56 µg/mL (≈ 4.26 µM) in the assay with M. morganii IFO 3848; 0.78 µg/mL (≈ 2.13 µM) against P. mirabilis IFO 3849; 0.05 µg/mL (≈ 0.136 µM) in the assay with K. pneumoniae PCI-602.
